Drawing on PMC12645083, “Microwave‐Enhanced Synthesis of 2‐Styrylquinoline‐4‐Carboxamides With Promising Anti‐Lymphoma Activity” (Archiv Der Pharmazie, 2025), this text covers IC50 for 5 compounds.

In experiment [1] the test system is TMD8 (DLBCL). The settings on record: Figure 1; cited from earlier work.
The test system of experiment [2] is VL51 (splenic B-cell lymphoma). Particulars: Figure 1; cited from earlier work.
Experiment [3] concerns Ly10 (DLBCL). The settings on record: Figure 1; cited from earlier work.
Experiment [4] deals with Ly1 (DLBCL). The settings on record: Figure 1; cited from earlier work.
The subject of experiment [5] is panel of five tumor cell lines (HD-MB03, RPMI-8402, SU-DHL-8, A549, MDA-MB-231). Description: Antiproliferative activity, range over the panel of five tumor cell lines. It counts as cell-based. The settings on record: Homo sapiens; range over the active cell lines of the five-line panel; 72 h. On the procedure:
The synthesized quinoline derivatives 4a–z and 4aa–ah were evaluated in vitro for their antiproliferative activity against a panel of five tumor cell lines (HD‐MB03, medulloblastoma; RPMI‐8402, T‐lymphoblastic leukemia; SU‐DHL‐8, B lymphocyte, large cell lymphoma; A549, non‐small cell lung cancer; MDA‐MB‐231, triple‐negative breast cancer) (Table 2). […] Replacing the 4‐Cl group with a trifluoromethyl group (4ac) reduced antiproliferative activity.
(§1) To test the newly synthesized compounds, various human cell lines were employed. HD‐MB03 cells were purchased from DSMZ (Braunschweig, Germany), while A549, MDA‐MB‐231, RPMI‐8420, SU‐DHL‐8, TOLEDO, VL51, SU‐DHL‐1, SU‐DHL‐18, and KM‐H2 were obtained from ATCC (Manassas, VA, USA). Cells were cultured in DMEM (for MDA‐MB‐231 and A549) or RPMI‐1640 (for RPMI‐8420, SU‐DHL‐8, TOLEDO, VL51, SU‐DHL‐1, SU‐DHL‐18, KM‐H2, and HD‐MB03) media (Gibco, Milan, Italy). Both media were supplemented with 115 units/mL penicillin G (Gibco, Milan, Italy), 115 µg/mL streptomycin (Invitrogen, Milan, Italy), and 10% fetal bovine serum (Invitrogen, Milan, Italy). Peripheral blood mononuclear cells (PBMCs) were isolated from healthy donors as previously described. For cytotoxicity assays, PBMCs were resuspended at 5 × 10⁵ cells/mL in complete RPMI medium with or without 2.5 µg/mL phytohemagglutinin (PHA) (Irvine Scientific) to stimulate T‐cell activation and proliferation. All cell lines were maintained at 37°C in a humidified atmosphere containing 5% CO₂. All compounds were dissolved in DMSO at a 10 mM stock concentration. For dose–response assays, cells were seeded in 96‐well plates at densities optimized for each cell line: HD‐MB03 at 10,000 cells/well, A549 at 4000 cells/well, and MDA‐MB‐231 at 7000 cells/well. All other cell lines were seeded at 20,000 cells/well in a final volume of 100 µL per well. After 24 h, cells were treated with a 6‐point serial dilution of compounds starting from 10 µM, in triplicate for statistical analysis. Seventy‐2 h posttreatment, 10 µL of resazurin solution (100 µg/mL) was added to each well, and cells were incubated for an additional 3–6 h. Fluorescence was measured using a Spark 10 M microplate reader (Tecan Group Ltd., Männedorf, Switzerland) with excitation at 535 nm and emission at 600 nm. The IC₅₀ was defined as the concentration of compound required to inhibit cell proliferation by 50% compared to cells treated with the highest DMSO concentration.

The test system of experiment [6] is RPMI-8402. Description: In vitro antiproliferative activity, resazurin cell viability. The settings on record: Homo sapiens, T-lymphoblastic leukemia cells, 72 h of treatment, mean ± SEM. It counts as cell-based. As for the experimental part: as §1
(§2) To test the newly synthesized compounds, various human cell lines were employed. HD-MB03 cells were purchased from DSMZ (Braunschweig, Germany), while A549, MDA-MB-231, RPMI-8420, SU-DHL-8, TOLEDO, VL51, SU-DHL-1, SU-DHL-18, and KM-H2 were obtained from ATCC (Manassas, VA, USA). Cells were cultured in DMEM (for MDA-MB-231 and A549) or RPMI-1640 (for RPMI-8420, SU-DHL-8, TOLEDO, VL51, SU-DHL-1, SU-DHL-18, KM-H2, and HD-MB03) media (Gibco, Milan, Italy). Both media were supplemented with 115 units/mL penicillin G (Gibco, Milan, Italy), 115 µg/mL streptomycin (Invitrogen, Milan, Italy), and 10% fetal bovine serum (Invitrogen, Milan, Italy). Peripheral blood mononuclear cells (PBMCs) were isolated from healthy donors as previously described. ^[1] For cytotoxicity assays, PBMCs were resuspended at 5 × 10⁵ cells/mL in complete RPMI medium with or without 2.5 µg/mL phytohemagglutinin (PHA) (Irvine Scientific) to stimulate T cell activation and proliferation. All cell lines were maintained at 37 °C in a humidified atmosphere containing 5% CO₂. All compounds were dissolved in DMSO at a 10 mM stock concentration. For dose–response assays, cells were seeded in 96-well plates at densities optimized for each cell line: HD-MB03 at 10,000 cells/well, A549 at 4,000 cells/well, and MDA-MB-231 at 7,000 cells/well. All other cell lines were seeded at 20,000 cells/well in a final volume of 100 µL per well. After 24 hours, cells were treated with a 6-point serial dilution of compounds starting from 10 µM, in triplicate for statistical analysis. Seventy-two hours post-treatment, 10 µL of resazurin solution (100 µg/mL) was added to each well, and cells were incubated for an additional 3–6 hours. Fluorescence was measured using a Spark 10M microplate reader (Tecan Group Ltd., Männedorf, Switzerland) with excitation at 535 nm and emission at 600 nm. […]
Background: The colour change of resazurin is a common sign of viable cells or microbes.

The subject of experiment [7] is MDA-MB-231. The experiment is described as above. It counts as cell-based. The settings on record: Homo sapiens, triple-negative breast cancer, 72 h of treatment, mean ± SEM. As for the experimental part:
as §1, §2

Experiment [8] relates to A549. The experiment is described as above. The settings on record: Homo sapiens, non-small cell lung cancer, 72 h of treatment, mean ± SEM. It counts as cell-based. As for the experimental part: as §1, §2
The subject of experiment [9] is SU-DHL-8. Described as above. The class given is cell-based. Particulars: Homo sapiens, B lymphocyte, large cell lymphoma, 72 h of treatment, mean ± SEM. As for the experimental part:
as §1, §2

The test system of experiment [10] is HD-MB03. Described as above. The settings on record: Homo sapiens, medulloblastoma cells, 72 h of treatment, mean ± SEM, at least three experiments. It counts as cell-based. As for the experimental part:
as §1, §2

What is called IC50 is the concentration at which inhibition is half-maximal. For `C[C@H](Nc1ncnc2[nH]cnc12)c1cc2ccc(F)cc2nc1-c1ccccn1` [ACP-319], the figures for the IC50 in experiment [1], in experiment [2] and in experiment [3] were 0.15 µM, 3 µM and 0.8 µM, respectively.
In the case of `O=S(=O)(Nc1cccc2cccnc12)c1ccc(F)cc1` [CU-O47], the IC50 in [3] and in experiment [4] was 0.7 µM each time.
For the compound `O=C(Nc1ccc([N+](=O)[O-])c(C(F)(F)F)c1)c1cc(/C=C/c2ccc(Cl)cc2)nc2ccccc12` [4w, (E)-2-(4-chlorostyryl)-N-(4-nitro-3-(trifluoromethyl)phenyl)quinoline-4-carboxamide], the half-inhibitory concentration (IC50) in [5] was 3.2 to 8.97 µM; in experiment [6], 3.56 ± 0.44 µM; in experiment [7] it was over 10 µM; in [8], over 10 µM; in experiment [9] it was 8.25 ± 0.67 µM; in experiment [10], over 10 µM.
As to `O=C(Nc1ccc(C(F)(F)F)cc1)c1cc(/C=C/c2ccccc2)nc2ccccc12` [4h, (E)-2-styryl-N-(4-(trifluoromethyl)phenyl)quinoline-4-carboxamide], the IC50 in [5] is 3.2 to 8.97 µM; in [6], 8.97 ± 0.75 µM; in experiment [7], over 10 µM; in [8], over 10 µM; in experiment [9], 7.09 ± 0.25 µM; in experiment [10], over 10 µM.
As for `O=C(Nc1ccc(C(F)(F)F)cc1)c1cc(/C=C/c2ccc(Cl)c(Cl)c2)nc2ccccc12` [4ab, (E)-2-(3,4-dichlorostyryl)-N-(4-(trifluoromethyl)phenyl)quinoline-4-carboxamide], the IC50 in experiment [5] is 3.2 to 8.97 µM; in experiment [6], over 10 µM; in experiment [7], over 10 µM; in experiment [8], over 10 µM; in experiment [9] it was 6.54 ± 0.44 µM; in experiment [10], 7.83 ± 0.98 µM.
